From patent US20180289656A1, “COMPOSITIONS AND METHODS TO TREAT URINARY TRACT INFECTIONS” (Hennepin Life Sciences, LLC, priority 2015, published 2018)

Tests used:
Format in all cases: cell-based
S. aureus biofilms = assay: biofilm formation by crystal violet staining, absorbance at 595 nm; details: 10 fold lower GML concentrations than necessary to inhibit bacterial growth
Experimental: (§1) To directly assess the effect of GML on the formation of biofilms, 96 well plastic microtiter plates were inoculated with approximately 10^6/mL of one of three strains of S. aureus (MN8, a methicillin sensitive strain; MNWH, a methicillin resistant strain; or MW2, a methicillin resistant strain), or with non-typable Haemophilus influenzae. Wells were cultured stationary at 37° C. for 24 and 48. As a control, in one set of three wells for each microbe, the wells were agitated 3 times by pipetting up and down. The bactericidal activity of GML was determined by measuring CFU/mL in supernatants. After removal of supernatants, wells were washed three times with PBS to remove unbound cells, and were then treated with crystal violet for 30 minutes. Wells were again washed three times with PBS to remove unbound crystal violet. Finally, wells were treated with ethanol to solubilize biofilm associated crystal violet. Absorbance at 595 nm was determined by an ELISA reader to measure biofilm formation.

S. aureus = assay: bactericidal activity against 54 strains of S. aureus
Description: 5% w/v GML nonaqueous gel is bactericidal for 54 strains of S. aureus, including highly antibiotic resistant organisms and multiple clonal groups. GML is antimicrobial on contact, killing the organisms in only a few minutes. The estimated chance of S. aureus developing resistance to GML is […]; thus resistance is highly unlikely.

[1] = test system: S. aureus (MN8, MNWH, MW2); assay: bactericidal activity / growth measured as CFU/mL in supernatants of microtiter plate cultures; details: GML at 500 μg/mL; all three S. aureus strains (MN8, MNWH, MW2); both 24 and 48 hours
Experimental: as §1

## Glycerol monolaurate [GML]
S. aureus biofilms
  biofilm formation (crystal violet staining of retained biofilm material): significantly inhibited
S. aureus
  time to kill the organisms (antimicrobial on contact): a few minutes
[1]
  growth as measured by CFU/mL: completely inhibited
